The target of assay [1] is ROCK1 (Homo sapiens (Human), UniProt Q13464). As to the kind of experiment: ROCK assay (LABCHIP peptide phosphorylation), ROCK1. The format is biochemical.
Assay [2] has as its target ROCK2 (Homo sapiens (Human), UniProt O75116). Briefly: ROCK assay (LABCHIP peptide phosphorylation), ROCK2. The assay is classed as biochemical. To be noted: 5 μM ATP, 1.5 μM peptide substrate.
Where [3] appears, read: 5 μM ATP, 1.5 μM peptide substrate, read-out: ROCK1 IC50.

Consider 31 molecules from patent US9926282B2, “Phthalazinones and isoquinolinones as rock inhibitors” (BRISTOL-MYERS SQUIBB COMPANY, priority 2013, dated 2018).

Like-named read-outs stand apart in the source and are kept apart here.

Sequence of ROCK1 (Q13464 whole entry, species assumed): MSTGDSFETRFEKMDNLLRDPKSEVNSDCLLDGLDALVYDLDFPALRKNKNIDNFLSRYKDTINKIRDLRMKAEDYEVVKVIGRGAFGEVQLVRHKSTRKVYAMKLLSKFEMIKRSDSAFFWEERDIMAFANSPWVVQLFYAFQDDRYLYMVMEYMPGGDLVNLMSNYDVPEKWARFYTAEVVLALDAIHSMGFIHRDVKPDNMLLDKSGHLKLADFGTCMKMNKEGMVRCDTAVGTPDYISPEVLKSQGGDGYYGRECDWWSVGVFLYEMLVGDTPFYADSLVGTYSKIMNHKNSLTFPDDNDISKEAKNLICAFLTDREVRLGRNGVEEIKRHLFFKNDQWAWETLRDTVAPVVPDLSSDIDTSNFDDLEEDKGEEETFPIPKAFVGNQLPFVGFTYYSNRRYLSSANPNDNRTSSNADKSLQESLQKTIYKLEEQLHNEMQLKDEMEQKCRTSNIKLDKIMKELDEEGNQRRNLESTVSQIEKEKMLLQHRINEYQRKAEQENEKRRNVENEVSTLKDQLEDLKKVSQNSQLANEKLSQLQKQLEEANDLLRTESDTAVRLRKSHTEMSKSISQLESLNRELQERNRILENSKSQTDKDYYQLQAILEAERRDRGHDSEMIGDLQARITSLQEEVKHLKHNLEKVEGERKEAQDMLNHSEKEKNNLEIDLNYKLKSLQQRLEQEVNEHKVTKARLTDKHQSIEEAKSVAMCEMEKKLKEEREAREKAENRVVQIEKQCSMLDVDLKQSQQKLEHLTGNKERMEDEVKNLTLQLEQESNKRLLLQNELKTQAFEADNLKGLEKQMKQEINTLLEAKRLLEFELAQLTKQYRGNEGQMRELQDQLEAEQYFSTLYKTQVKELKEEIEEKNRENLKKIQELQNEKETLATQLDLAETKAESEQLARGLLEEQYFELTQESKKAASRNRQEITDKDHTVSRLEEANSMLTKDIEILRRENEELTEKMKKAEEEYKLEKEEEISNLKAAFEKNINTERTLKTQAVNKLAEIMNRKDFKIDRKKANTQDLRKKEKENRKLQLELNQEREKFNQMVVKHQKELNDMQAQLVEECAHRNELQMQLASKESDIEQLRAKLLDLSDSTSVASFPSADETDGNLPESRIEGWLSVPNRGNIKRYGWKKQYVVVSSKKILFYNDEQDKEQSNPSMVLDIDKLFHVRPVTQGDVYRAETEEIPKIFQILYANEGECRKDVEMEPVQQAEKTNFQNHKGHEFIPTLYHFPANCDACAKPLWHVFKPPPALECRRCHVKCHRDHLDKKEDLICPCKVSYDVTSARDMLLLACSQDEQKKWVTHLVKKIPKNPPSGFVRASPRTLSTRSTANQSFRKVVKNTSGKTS
Sequence of ROCK2 (O75116 whole entry, species assumed): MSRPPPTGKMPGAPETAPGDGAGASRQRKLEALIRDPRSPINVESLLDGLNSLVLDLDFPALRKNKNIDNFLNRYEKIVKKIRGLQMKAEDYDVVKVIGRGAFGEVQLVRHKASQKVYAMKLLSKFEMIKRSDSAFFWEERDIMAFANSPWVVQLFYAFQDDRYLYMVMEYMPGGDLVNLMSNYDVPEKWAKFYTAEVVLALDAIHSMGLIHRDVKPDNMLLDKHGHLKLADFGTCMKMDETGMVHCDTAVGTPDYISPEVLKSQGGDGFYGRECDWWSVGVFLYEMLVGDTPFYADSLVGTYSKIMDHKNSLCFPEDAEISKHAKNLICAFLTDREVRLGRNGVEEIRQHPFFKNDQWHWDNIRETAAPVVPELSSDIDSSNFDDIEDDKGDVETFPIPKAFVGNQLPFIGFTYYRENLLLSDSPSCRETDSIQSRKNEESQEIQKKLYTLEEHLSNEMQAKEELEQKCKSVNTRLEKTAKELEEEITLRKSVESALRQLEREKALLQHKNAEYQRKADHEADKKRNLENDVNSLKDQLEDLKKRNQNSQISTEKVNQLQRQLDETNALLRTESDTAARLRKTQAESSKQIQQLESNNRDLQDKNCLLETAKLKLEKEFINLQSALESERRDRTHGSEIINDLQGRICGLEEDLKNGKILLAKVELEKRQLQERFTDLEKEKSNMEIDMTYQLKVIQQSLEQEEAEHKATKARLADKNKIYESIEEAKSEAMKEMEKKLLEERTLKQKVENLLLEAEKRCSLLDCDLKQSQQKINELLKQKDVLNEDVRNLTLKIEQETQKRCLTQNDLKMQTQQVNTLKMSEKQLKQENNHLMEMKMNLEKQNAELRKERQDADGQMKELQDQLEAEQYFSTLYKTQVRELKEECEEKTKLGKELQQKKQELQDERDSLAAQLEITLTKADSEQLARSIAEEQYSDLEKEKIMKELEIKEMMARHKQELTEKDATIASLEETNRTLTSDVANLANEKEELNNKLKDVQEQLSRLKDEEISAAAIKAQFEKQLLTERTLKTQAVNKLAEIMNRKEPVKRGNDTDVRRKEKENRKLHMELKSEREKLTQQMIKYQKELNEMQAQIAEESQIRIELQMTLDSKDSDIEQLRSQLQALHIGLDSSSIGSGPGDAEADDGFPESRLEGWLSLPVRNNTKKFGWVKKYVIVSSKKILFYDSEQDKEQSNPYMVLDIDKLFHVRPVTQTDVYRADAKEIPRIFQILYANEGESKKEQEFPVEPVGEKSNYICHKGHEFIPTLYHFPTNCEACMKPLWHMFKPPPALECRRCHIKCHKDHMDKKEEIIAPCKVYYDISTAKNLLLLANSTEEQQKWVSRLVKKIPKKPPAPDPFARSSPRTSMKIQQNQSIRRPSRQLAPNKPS

The term IC50 denotes the concentration at which inhibition is half-maximal. Regarding `COc1cc(-c2n[nH]c(=O)c3ccccc23)ccc1NC(=O)c1nn(CC2CCOC2)c2ccccc12` (centres unmarked) [Example 352, N-(2-Methoxy-4-(4-oxo-3,4-dihydrophthalazin-1-yl)phenyl)-1-((tetrahydrofuran-3-yl)methyl)-1H-indazole-3-carboxamide], the IC50 in assay [1] (setting [3]) lay within 1000 to 50000 nM; in assay [2], 101 to 1000 nM.
For `Cc1cc(NC(=O)c2nn(CC3(C)COC3)c3ccccc23)ccc1-c1n[nH]c(=O)c2ccccc12` [Example 314, N-[3-methyl-4-(4-oxo-3,4-dihydrophthalazin-1-yl)phenyl]-1-[(3-methyloxetan-3-yl)methyl]-1H-indazole-3-carboxamide] the same measures were 0.1 to 100 nM and 0.1 to 100 nM.
Turning to `Cc1nc2ccccn2c1C(=O)Nc1ccc(-c2n[nH]c(=O)c3ccccc23)cc1` [Example 95, 2-methyl-N-[4-(4-oxo-3,4-dihydrophthalazin-1-yl)phenyl]imidazo[1,2-a]pyridine-3-carboxamide], the IC50 in assay [1] (setting [3]) and in assay [2] was 0.1 to 100 nM each time.
As for `Cc1cc(NC(=O)Cc2ccc(-c3n[nH]c(=O)c4ccccc34)cc2)on1` [Example 26, N-(3-methyl-1,2-oxazol-5-yl)-2-[4-(4-oxo-3,4-dihydrophthalazin-1-yl)phenyl]acetamide], the values for the IC50 in assay [1] (setting [3]) and in assay [2] were 1000 to 50000 nM and 0.1 to 100 nM, respectively.
For `CN(C)c1ccc2cc(C(=O)Nc3ccc(-c4n[nH]c(=O)c5ccccc45)cc3)[nH]c2c1` [Example 94, 6-(dimethylamino)-N-[4-(4-oxo-3,4-dihydrophthalazin-1-yl)phenyl]-1H-indole-2-carboxamide] the same measures were 0.1 to 100 nM and 0.1 to 100 nM.
The corresponding values for `O=C(Nc1ccc(-c2n[nH]c(=O)c3ccccc23)cc1)c1cnn(-c2cccc(Cl)c2)c1` [Example 198, 1-(3-chlorophenyl)-N-[4-(4-oxo-3,4-dihydrophthalazin-1-yl)phenyl]-1H-pyrazole-4-carboxamide] are 0.1 to 100 nM and 0.1 to 100 nM.
For `Cc1cc(CC(=O)N2Cc3ccccc3C2)ccc1-c1c[nH]c(=O)c2ccccc12` [Example 263, 4-(4-(2-(Isoindolin-2-yl)-2-oxoethyl)-2-methylphenyl)isoquinolin-1(2H)-one] the same measures were 101 to 1000 nM and 0.1 to 100 nM.
As for `O=C(Nc1ccc(-c2n[nH]c(=O)c3ccccc23)c(Cl)c1)c1nn(CC2CCOCC2)c2ccccc12` [Example 318, N-[3-chloro-4-(4-oxo-3,4-dihydrophthalazin-1-yl)phenyl]-1-(oxan-4-ylmethyl)-1H-indazole-3-carboxamide], the IC50 in assay [1] (setting [3]) and in assay [2] was 0.1 to 100 nM throughout.
Regarding `CN(C(=O)Cc1ccc(-c2n[nH]c(=O)c3ccccc23)cc1)c1ccccc1` [Example 22, N-methyl-2-[4-(4-oxo-3,4-dihydrophthalazin-1-yl)phenyl]-N-phenylacetamide], the 50% inhibitory concentration (IC50) in assay [1] (setting [3]) and in assay [2] was 1000 to 50000 nM in each case.
As for `COc1cccc2cc(C(=O)Nc3ccc(-c4n[nH]c(=O)c5ccccc45)c(C)c3)[nH]c12` [Example 309, 7-methoxy-N-[3-methyl-4-(4-oxo-3,4-dihydrophthalazin-1-yl)phenyl]-1H-indole-2-carboxamide], the IC50 in assay [1] (setting [3]) and in assay [2] was 0.1 to 100 nM in each case.
As to `O=C(Nc1ccc(-c2c[nH]c(=O)c3ccccc23)cc1)c1onc2ccccc12` [Example 247, N-(4-(1-Oxo-1,2-dihydroisoquinolin-4-yl)phenyl)benzo[c]isoxazole-3-carboxamide], the IC50 in assay [1] (setting [3]) and in assay [2] was 0.1 to 100 nM in each case.
On to `O=C(Cc1ccc(-c2n[nH]c(=O)c3ccccc23)c(F)c1)N1Cc2ccccc2C1` [Example 37, 4-(2-Fluoro-4-(2-(isoindolin-2-yl)-2-oxoethyl)phenyl)phthalazin-1(2H)-one], for which the IC50 was 101 to 1000 nM in assay [1] (setting [3]) and 0.1 to 100 nM in assay [2].
For `O=C(Nc1ccc(-c2n[nH]c(=O)c3ccccc23)c(CO)c1)c1nn(CCO)c2ccccc12` [Example 359, 1-(2-Hydroxyethyl)-N-(3-(hydroxymethyl)-4-(4-oxo-3,4-dihydrophthalazin-1-yl)phenyl)-1H-indazole-3-carboxamide] the same measures were 1000 to 50000 nM and 0.1 to 100 nM.
For `Cc1c(C(=O)Nc2ccc(-c3n[nH]c(=O)c4ccccc34)cc2)nnn1-c1cccc(C(F)(F)F)c1` [Example 232, 5-methyl-N-[4-(4-oxo-3,4-dihydrophthalazin-1-yl)phenyl]-1-[3-(trifluoromethyl)phenyl]-1H-1,2,3-triazole-4-carboxamide] the same measures were 101 to 1000 nM and 0.1 to 100 nM.
The corresponding values for `CC(C)c1c(C(=O)Nc2ccc(-c3n[nH]c(=O)c4ccccc34)cc2)cn2nc[nH]c(=O)c12` [Example 108, 4-oxo-N-[4-(4-oxo-3,4-dihydrophthalazin-1-yl)phenyl]-5-(propan-2-yl)-3H,4H-pyrrolo[2,1-f][1,2,4]triazine-6-carboxamide] are 101 to 1000 nM and 0.1 to 100 nM.
For `O=C(O)Cn1nc(C(=O)Nc2ccc(-c3n[nH]c(=O)c4ccccc34)cc2)c2ccccc21` [Example 328, 2-(3-{[4-(4-Oxo-3,4-dihydrophthalazin-1-yl)phenyl]carbamoyl}-1H-indazol-1-yl)acetic Acid], the IC50 fell in the range of 101 to 1000 nM in assay [1] (setting [3]) and 0.1 to 100 nM in assay [2].
The corresponding values for `O=C(Nc1ccc(-c2n[nH]c(=O)c3ccccc23)c(CO)c1)c1nn(CC2CCCO2)c2ccccc12` (centres unmarked) [Example 367, N-(3-(Hydroxymethyl)-4-(4-oxo-3,4-dihydrophthalazin-1-yl)phenyl)-1-((tetrahydrofuran-2-yl)methyl)-1H-indazole-3-carboxamide] are 1000 to 50000 nM and 0.1 to 100 nM.
For `O=C(Cc1ccc(-c2n[nH]c(=O)c3ccccc23)cc1)NC1CCC1` [Example 19, N-cyclobutyl-2-[4-(4-oxo-3,4-dihydrophthalazin-1-yl)phenyl]acetamide] the same measures were 1000 to 50000 nM and 1000 to 50000 nM.
In the case of `CCn1ccc(C(=O)Nc2ccc(-c3n[nH]c(=O)c4ccccc34)cc2)n1` [Example 204, 1-ethyl-N-[4-(4-oxo-3,4-dihydrophthalazin-1-yl)phenyl]-1H-pyrazole-3-carboxamide], the concentration for half-maximal inhibition (IC50) is 101 to 1000 nM in assay [1] (setting [3]) and 0.1 to 100 nM in assay [2].
The corresponding values for `CC1(C)CN(C(=O)Cc2ccc(-c3n[nH]c(=O)c4ccccc34)cc2)c2ccccc21` [Example 39, 4-{4-[2-(3,3-dimethyl-2,3-dihydro-1H-indol-1-yl)-2-oxoethyl]phenyl}-1,2-dihydrophthalazin-1-one] are 101 to 1000 nM and 0.1 to 100 nM.
For the molecule `Cc1nn(-c2ccccc2)cc1C(=O)Nc1ccc(-c2n[nH]c(=O)c3ccccc23)cc1` [Example 228, 3-methyl-N-[4-(4-oxo-3,4-dihydrophthalazin-1-yl)phenyl]-1-phenyl-1H-pyrazole-4-carboxamide], the half-maximal inhibitory concentration (IC50) in assay [1] (setting [3]) and in assay [2] was 0.1 to 100 nM throughout.
Consider `O=C(Nc1ccc(-c2n[nH]c(=O)c3ccccc23)cc1)c1noc2ccccc12` [Example 118, N-[4-(4-oxo-3,4-dihydrophthalazin-1-yl)phenyl]-1,2-benzoxazole-3-carboxamide], for which the 50% inhibitory concentration (IC50) was 101 to 1000 nM in assay [1] (setting [3]) and 0.1 to 100 nM in assay [2].
The corresponding values for `O=C(Nc1ccc(-c2n[nH]c(=O)c3ccccc23)cc1)c1cnn2ccccc12` [Example 103, N-[4-(4-oxo-3,4-dihydrophthalazin-1-yl)phenyl]pyrazolo[1,5-a]pyridine-3-carboxamide] are 0.1 to 100 nM and 0.1 to 100 nM.
For `Cc1ccccc1-n1ncc(C(=O)Nc2ccc(-c3n[nH]c(=O)c4ccccc34)cc2)c1C` [Example 214, 5-methyl-1-(2-methylphenyl)-N-[4-(4-oxo-3,4-dihydrophthalazin-1-yl)phenyl]-1H-pyrazole-4-carboxamide] the same measures were 0.1 to 100 nM and 0.1 to 100 nM.
Turning to `O=C(Nc1ccc(-c2n[nH]c(=O)c3ccccc23)cc1)c1cnn(C2C3CCC2CC3)c1` (centres unmarked) [Example 392, 1-(Bicyclo[2.2.1]heptan-7-yl)-N-(4-(4-oxo-3,4-dihydrophthalazin-1-yl)phenyl)-1H-pyrazole-4-carboxamide], the IC50 in assay [1] (setting [3]) and in assay [2] was 0.1 to 100 nM in each case.
`COc1ccc2[nH]nc(C(=O)Nc3ccc(-c4n[nH]c(=O)c5ccccc45)cc3)c2c1` [Example 123, 5-methoxy-N-[4-(4-oxo-3,4-dihydrophthalazin-1-yl)phenyl]-1H-indazole-3-carboxamide]: the values for the concentration for half-maximal inhibition (IC50) in assay [1] (setting [3]) and in assay [2] were 101 to 1000 nM and 0.1 to 100 nM, respectively.
As for `O=C(Nc1ccc(-c2n[nH]c(=O)c3ccccc23)cc1)c1ccc(N2CCOCC2)cc1` [Example 63, 4-(morpholin-4-yl)-N-[4-(4-oxo-3,4-dihydrophthalazin-1-yl)phenyl]benzamide], the IC50 lay in the range of 101 to 1000 nM in assay [1] (setting [3]) and 0.1 to 100 nM in assay [2].
For `CC(C)(O)CNC(=O)CCn1nc(C(=O)Nc2ccc(-c3n[nH]c(=O)c4ccccc34)cc2)c2ccccc21` [Example 336, 1-(3-((2-Hydroxy-2-methylpropyl)amino)-3-oxopropyl)-N-(4-(4-oxo-3,4-dihydrophthalazin-1-yl)phenyl)-1H-indazole-3-carboxamide] the same measures were 0.1 to 100 nM and 0.1 to 100 nM.
As for `COCCCn1nc(C(=O)Nc2ccc(-c3n[nH]c(=O)c4ccccc34)cc2)c2ccccc21` [Example 163, 1-(3-methoxypropyl)-N-[4-(4-oxo-3,4-dihydrophthalazin-1-yl)phenyl]-1H-indazole-3-carboxamide], the IC50 in assay [1] (setting [3]) and in assay [2] was 0.1 to 100 nM in each case.
On to `CN1CCN(Cc2ccc3c(c2)CN(C(=O)Oc2ccc(-c4n[nH]c(=O)c5ccccc45)cc2)C3)CC1` [Example 72, 4-(4-Oxo-3,4-dihydrophthalazin-1-yl)phenyl 5-((4-methylpiperazin-1-yl)methyl)isoindoline-2-carboxylate], for which the figures for the 50% inhibitory concentration (IC50) in assay [1] and in assay [2] were 101 to 1000 nM and 0.1 to 100 nM, respectively.
As for `CC(O)COc1ccn2ncc(C(=O)Nc3ccc(-c4n[nH]c(=O)c5ccccc45)cc3)c2c1` (centres unmarked) [Example 185, 5-(2-hydroxypropoxy)-N-[4-(4-oxo-3,4-dihydrophthalazin-1-yl)phenyl]pyrazolo[1 5-a]pyridine-3-carboxamide], the IC50 in assay [1] (setting [3]) and in assay [2] was 0.1 to 100 nM throughout.
